A short description of this test: compartmental model of NEFA trafficking in response to a glucose challenge (frequently sampled intravenous glucose tolerance test, FAs measured by GC-MS). Type of test: in vivo. The conditions noted are these: greater in IR (p=0.05); mean [95% CI] 55% [14, 76]. From the text: In general the present disclosure involves analysis of NEFA trafficking by determining kinetic parameters that include, but are not necessarily limited to, the fractional rate of NEFA appearance (Ra), the rate of NEFA disappearance (kNEFA), threshold for glucose-induced suppression (tG), and IC50 for glucose inhibition of NEFA production (gIC50). Those skilled in the art will recognize that each of these parameters is known and can be determined using a variety of established approaches. In this regard the presence or absence, qualitative and quantitative amounts of, and kinetic parameters for one or more NEFAs in a biological sample can be sample determined using, for example, chromatographic methods, such as column chromatography, including High Performance Liquid Chromatography (HPLC) and gas chromatography, and spectroscopy methods including mass spectrometry, nuclear magnetic resonance spectroscopy, infrared spectroscopy, positron emission tomography and other approaches, such as those described in “A novel minimal model to describe NEFA kinetics following an intravenous glucose challenge” Ray C. Boston, Peter J. Moate, American Journal of Physiology—Regulatory, Integrative and Comparative Physiology Apr 2008, 294 (4) R1140-R1147. […]
This Example reflects an ancillary study. […] Six FAs were measured by GC-MS (myristic, palmitic, palmitoleic, stearic, oleic, and linoleic acids). […]

As for `CCCCCCCCCCCCCCCCCC(=O)O` [stearate, stearic acid], the “kNEFA in IR versus healthy subjects” value is given as 55%.

For the origin of these results see US20190346463A1, “COMPOSITIONS AND METHOD FOR DETERMINING INSULIN RESISTANCE USING NON-ESTERIFIED FATTY ACID ANALYSIS” (The Penn State Research Foundation, priority 2016, published 2019).
